In PubChem BioAssay (NCI):
“And” between values parts separate entries of the source, which are not always exact repeats. Equal values may be shown once.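 Briefly, cells in 96-well plates were exposed to five compound concentrations for 48 h, and endpoints were estimated by linear interpolation. Here, GI50 denotes the concentration required for 50% inhibition of growth. The concentration for full growth arrest is given as TGI.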

These compounds were tested on SR leukemia (assay: growth of human tumour cells (NCI), 48 h).

Compared with COc1cccc2c1C(=O)c1c(O)c3c(c(O)c1C2=O)C[C@@](O)(C(C)=O)C[C@@H]3OC1OC(C)C(O)C(N)C1Br (stereo not given in full), COc1ccc(Cn2cc3c(c2-c2ccccc2)CC(C)(C)c2cnoc2-3)cc1 is higher in TGI: 0.0185 µM for the first, over 100 µM for the second.

COC(=O)C1=C(C)N(NC(=O)OC(C)(C)C)C(=O)C1=P(c1ccccc1)(c1ccccc1)c1ccccc1 and O=C1OC(c2ccccc2)=N/C1=C\c1cccc2ccccc12 cannot be ordered by TGI: over 100 µM for the first, over 100 µM for the second.

C[C@@H]1CC(=O)C2CCCC1C2=O (stereo not given in full) and Oc1cccnc1CN1CCCCC1 cannot be ordered by TGI: over 100 µM for the first, over 100 µM for the second.

COc1ccc(Cn2cc3c(c2-c2ccccc2)CC(C)(C)c2cnoc2-3)cc1 was tested, and the GI50 was 0.483 µM.

These compounds were tested on COLO 205 colon (assay: growth of human tumour cells (NCI), 48 h).

Compared with CN1CCN(CCCOc2ccc3nc(Nc4ccc(Cl)c(C(F)(F)F)c4)ccc3c2)CC1, Cc1cc(C(=O)Nc2ncc(Cc3cccc(C(F)(F)F)c3)s2)c2ccccc2n1 is 13-fold lower in GI50: 9.79 µM for the first, 0.75 µM for the second.

Going from CC(C)n1nc(-c2cc3cc(O)ccc3[nH]2)c2c(N)ncnc21 to Clc1ccc(C2=Nn3c(COc4ccccc4Cl)nnc3SC2)c(Cl)c1, the GI50 rises from 0.363 µM to 14.7 µM (40-fold).

Going from CCCCC(O)(c1ccc(Cl)cc1)C(CN1CCOCC1)c1ccc(Cl)cc1 (stereo not given) to Cc1cccc(N2CCN(C(=S)c3ccc4c(c3)OCO4)CC2)c1, the GI50 falls from 10.8 µM to 0.582 µM (19-fold).

O=C1OC(C(O)CO)C(=O)C1=O (stereo not given) and CC(=O)/C(C)=N/NC(=O)c1ccccc1O cannot be ordered by GI50: 2800 µM for the first, over 100 µM for the second.

Going from Cc1ccc(C(=O)CN(/C=C/C(=O)C(F)(F)F)c2ccc(S(N)(=O)=O)cc2)cc1 to CC(=O)[O-].CCN(CC)c1ccc(C=NCCN=Cc2ccc(N(CC)CC)cc2[O-])c([O-])c1.[Mn+3], the GI50 falls from over 100 µM to 18.6 µM.

CCC[CH2][Sn]1([CH2]CCC)[O]CC(CN2CCCC2)[O]1 (stereo not given) and CCOC(=O)c1c(C)n(Cc2ccc(Cl)cc2Cl)c2c1c(CN(C)C)c(O)c1[nH]cnc12 are within 1.5-fold of each other in GI50: 18.3 µM for the first, 20.1 µM for the second.

First: COc1cccc2c1C(=O)c1c(O)c3c(c(O)c1C2=O)C[C@@](O)(C(C)=O)C[C@@H]3OC1OC(C)C(O)C(N)C1Br (stereo not given in full)
Second: COc1ccc(Cn2cc3c(c2-c2ccccc2)CC(C)(C)c2cnoc2-3)cc1
The GI50 of the first is 7.5-fold lower: 0.219 µM for the first, 1.65 µM for the second.

Going from CN1CCN(CCCOc2ccc3nc(Nc4ccc(Cl)c(C(F)(F)F)c4)ccc3c2)CC1 to Cc1cc(C(=O)Nc2ncc(Cc3cccc(C(F)(F)F)c3)s2)c2ccccc2n1, the TGI rises from 24.4 µM to over 100 µM.

Going from CC(C)n1nc(-c2cc3cc(O)ccc3[nH]2)c2c(N)ncnc21 to Clc1ccc(C2=Nn3c(COc4ccccc4Cl)nnc3SC2)c(Cl)c1, the TGI rises from 4.19 µM to 33.5 µM (8-fold).

Compared with CCCCC(O)(c1ccc(Cl)cc1)C(CN1CCOCC1)c1ccc(Cl)cc1 (stereo not given), Cc1cccc(N2CCN(C(=S)c3ccc4c(c3)OCO4)CC2)c1 is 5.2-fold lower in TGI: 25.5 µM for the first, 4.9 µM for the second.

NCC1Nc2ccccc2[C@@H](O)C1O (stereo not given in full) and CC(=O)/C(C)=N/NC(=O)c1ccccc1O cannot be ordered by TGI: over 100 µM for the first, over 100 µM for the second.

OC[C@H]1CCCC1O (stereo not given in full) and C[C@@H]1CC(=O)C2CCCC1C2=O (stereo not given in full) cannot be ordered by TGI: over 100 µM for the first, over 100 µM for the second.

O=C1CCN2C(=O)CCN12 and Oc1cccnc1CN1CCCCC1 cannot be ordered by TGI: over 100 µM for the first, over 100 µM for the second.

O=C1OC(C(O)CO)C(=O)C1=O (stereo not given) and CCOc1ccccc1NC(=O)CC(C(=O)OC)C(=O)C(=O)OC (stereo not given) cannot be ordered by TGI: 6730 µM for the first, over 100 µM for the second.

First: COc1ccc(/C=C/c2ccnc3ccccc23)c(OC)c1
Second: COc1ccc(Cn2cc3c(c2-c2ccccc2)CC(C)(C)c2cnoc2-3)cc1
The TGI of the first is higher: over 10 µM for the first, 5.1 µM for the second.

Compared with Cc1ccc(C(=O)CN(/C=C/C(=O)C(F)(F)F)c2ccc(S(N)(=O)=O)cc2)cc1, CC(=O)[O-].CCN(CC)c1ccc(C=NCCN=Cc2ccc(N(CC)CC)cc2[O-])c([O-])c1.[Mn+3] is lower in TGI: over 100 µM for the first, 32.8 µM for the second.

Going from CC1CC[C@]2(C(=O)O)CCC3(C)C(=CC(=O)C4[C@@]5(C)CCC(=O)C(C)(C)C5CC[C@]43C)[C@@H]2[C@H]1C (stereo not given in full) to COc1cc2c(cc1OC)C(CC(=O)NN=C(C)C)NCC2 (stereo not given), the TGI rises from 33.7 µM to over 100 µM.

CCC[CH2][Sn]1([CH2]CCC)[O]CC(CN2CCCC2)[O]1 (stereo not given) and CCOC(=O)c1c(C)n(Cc2ccc(Cl)cc2Cl)c2c1c(CN(C)C)c(O)c1[nH]cnc12 are within 1.5-fold of each other in TGI: 34.3 µM for the first, 37.7 µM for the second.

COC(=O)C1=C(C)N(NC(=O)OC(C)(C)C)C(=O)C1=P(c1ccccc1)(c1ccccc1)c1ccccc1 and O=C1OC(c2ccccc2)=N/C1=C\c1cccc2ccccc12 cannot be ordered by TGI: over 100 µM for the first, over 100 µM for the second.

For COc1cccc2c1C(=O)c1c(O)c3c(c(O)c1C2=O)C[C@@](O)(C(C)=O)C[C@@H]3OC1OC(C)C(O)C(N)C1Br (stereo not given in full), the TGI was 2.99 µM and 1.23 µM.

What follows are compounds tested on 786-0 renal (assay: growth of human tumour cells (NCI), 48 h).

First: CN1CCN(CCCOc2ccc3nc(Nc4ccc(Cl)c(C(F)(F)F)c4)ccc3c2)CC1
Second: Cc1cc(C(=O)Nc2ncc(Cc3cccc(C(F)(F)F)c3)s2)c2ccccc2n1
The GI50 of the first is 4.9-fold higher: 13.9 µM for the first, 2.84 µM for the second.

First: CC(C)n1nc(-c2cc3cc(O)ccc3[nH]2)c2c(N)ncnc21
Second: Clc1ccc(C2=Nn3c(COc4ccccc4Cl)nnc3SC2)c(Cl)c1
The GI50 of the first is 87-fold lower: 0.294 µM for the first, 25.6 µM for the second.

First: CCCCC(O)(c1ccc(Cl)cc1)C(CN1CCOCC1)c1ccc(Cl)cc1 (stereo not given)
Second: Cc1cccc(N2CCN(C(=S)c3ccc4c(c3)OCO4)CC2)c1
The GI50 of the first is 1.7-fold higher: 13.6 µM for the first, 7.97 µM for the second.

O=C1OC(C(O)CO)C(=O)C1=O (stereo not given) and CC(=O)/C(C)=N/NC(=O)c1ccccc1O cannot be ordered by GI50: 3170 µM for the first, over 100 µM for the second.

Going from Cc1ccc(C(=O)CN(/C=C/C(=O)C(F)(F)F)c2ccc(S(N)(=O)=O)cc2)cc1 to CC(=O)[O-].CCN(CC)c1ccc(C=NCCN=Cc2ccc(N(CC)CC)cc2[O-])c([O-])c1.[Mn+3], the GI50 falls from over 100 µM to 38.7 µM.

CCC[CH2][Sn]1([CH2]CCC)[O]CC(CN2CCCC2)[O]1 (stereo not given) and CCOC(=O)c1c(C)n(Cc2ccc(Cl)cc2Cl)c2c1c(CN(C)C)c(O)c1[nH]cnc12 are within 1.5-fold of each other in GI50: 14.4 µM for the first, 20.1 µM for the second.

Compared with COc1cccc2c1C(=O)c1c(O)c3c(c(O)c1C2=O)C[C@@](O)(C(C)=O)C[C@@H]3OC1OC(C)C(O)C(N)C1Br (stereo not given in full), COc1ccc(Cn2cc3c(c2-c2ccccc2)CC(C)(C)c2cnoc2-3)cc1 is 230-fold higher in GI50: 0.0178 µM for the first, 4.1 µM for the second.

First: CN1CCN(CCCOc2ccc3nc(Nc4ccc(Cl)c(C(F)(F)F)c4)ccc3c2)CC1
Second: Cc1cc(C(=O)Nc2ncc(Cc3cccc(C(F)(F)F)c3)s2)c2ccccc2n1
The TGI of the first is lower: 28.2 µM for the first, over 100 µM for the second.

First: CC(C)n1nc(-c2cc3cc(O)ccc3[nH]2)c2c(N)ncnc21
Second: Clc1ccc(C2=Nn3c(COc4ccccc4Cl)nnc3SC2)c(Cl)c1
The TGI of the first is 23-fold lower: 2.88 µM for the first, 65.4 µM for the second.

Compared with CCCCC(O)(c1ccc(Cl)cc1)C(CN1CCOCC1)c1ccc(Cl)cc1 (stereo not given), Cc1cccc(N2CCN(C(=S)c3ccc4c(c3)OCO4)CC2)c1 is higher in TGI: 27.5 µM for the first, over 100 µM for the second.

NCC1Nc2ccccc2[C@@H](O)C1O (stereo not given in full) and CC(=O)/C(C)=N/NC(=O)c1ccccc1O cannot be ordered by TGI: over 100 µM for the first, over 100 µM for the second.

OC[C@H]1CCCC1O (stereo not given in full) and C[C@@H]1CC(=O)C2CCCC1C2=O (stereo not given in full) cannot be ordered by TGI: over 100 µM for the first, over 100 µM for the second.

O=C1CCN2C(=O)CCN12 and O=C1OC(C(O)CO)C(=O)C1=O (stereo not given) cannot be ordered by TGI: over 100 µM for the first, 8770 µM for the second.

COc1ccc(/C=C/c2ccnc3ccccc23)c(OC)c1 and COc1ccc(Cn2cc3c(c2-c2ccccc2)CC(C)(C)c2cnoc2-3)cc1 cannot be ordered by TGI: over 10 µM for the first, over 100 µM for the second.

Cc1ccc(C(=O)CN(/C=C/C(=O)C(F)(F)F)c2ccc(S(N)(=O)=O)cc2)cc1 and CC(=O)[O-].CCN(CC)c1ccc(C=NCCN=Cc2ccc(N(CC)CC)cc2[O-])c([O-])c1.[Mn+3] cannot be ordered by TGI: over 100 µM for the first, over 100 µM for the second.

Compared with Clc1nc(Cl)c(Cl)c(-c2ccccc2)n1, O=C1OC(c2ccccc2)=N/C1=C\c1cccc2ccccc12 is higher in TGI: 7.45 µM for the first, over 100 µM for the second.

CC1CC[C@]2(C(=O)O)CCC3(C)C(=CC(=O)C4[C@@]5(C)CCC(=O)C(C)(C)C5CC[C@]43C)[C@@H]2[C@H]1C (stereo not given in full) and COc1cc2c(cc1OC)C(CC(=O)NN=C(C)C)NCC2 (stereo not given) cannot be ordered by TGI: over 100 µM for the first, over 100 µM for the second.

CCC[CH2][Sn]1([CH2]CCC)[O]CC(CN2CCCC2)[O]1 (stereo not given) and CCOC(=O)c1c(C)n(Cc2ccc(Cl)cc2Cl)c2c1c(CN(C)C)c(O)c1[nH]cnc12 are within 1.5-fold of each other in TGI: 28.2 µM for the first, 41.4 µM for the second.

CCOc1ccccc1NC(=O)CC(C(=O)OC)C(=O)C(=O)OC (stereo not given) and COC(=O)C1=C(C)N(NC(=O)OC(C)(C)C)C(=O)C1=P(c1ccccc1)(c1ccccc1)c1ccccc1 cannot be ordered by TGI: over 100 µM for the first, over 100 µM for the second.

For COc1cccc2c1C(=O)c1c(O)c3c(c(O)c1C2=O)C[C@@](O)(C(C)=O)C[C@@H]3OC1OC(C)C(O)C(N)C1Br (stereo not given in full), the TGI was 0.62 µM and 0.168 µM.
